From patent publication US10668043B2, “Potentiated antimicrobial agents” (priority 2014, dated 2020)

How the values were obtained:
[1] = tested on: Pseudomonas aeruginosa; assay: MIC measurement in agar solid medium (CLSI); type: cell-based
Excerpt: (§1) Inhibitory minimum concentration measurement tests are made in a solid agar medium according to international standards in force (CLSI M7-A9 Jan 12 standards): dispersion of the compounds to be tested in a Mueller Hinton gelose. An adaptation relating to the hydrophobicity of compounds and compositions is however necessary to disperse them in the medium: dilution of the compounds in a solvent. The compounds and compositions incorporated in the agar medium can be diluted beforehand in one or more solvents (Tween® 80 diluted with water, tween® 80 diluted with propylene, DMSO diluted with water). The strains are deposited onto the agar surface with a steers apparatus. In the examples, different dissolution methods for products are tested in parallel to circumvent the problems of water/solvent distribution coefficient of the molecules (antimicrobial and potentiator) whereas the bacteria grow only in the aqueous phase. The technical requirement will not intervene in in vivo tests. The same dilution methods can be implemented in a liquid medium (microplates and tubes). The same methodology is implemented with fungi.
MIC measurement: the minimum inhibitory concentration measurement tests are made in an agar solid medium according to international standards in force (CLSI standards), according to the previously defined protocol. The compounds and compositions incorporated in the agar medium can be diluted beforehand in one or more solvents (Tween® 80 diluted with water—3.4 ml Tween for 9.6 ml water—, tween® 80 diluted with propylene 10-3.4 ml Tween for 9.6 ml propylene—, or DMSO diluted with water).
The booster contribution as compared with the MIC of the antibiotic alone is expressed in a (MIC ATB)/(MIC ATB+booster) ratio. Thereby, gains are defined:
MIC 50 gain=(MIC50 of the antibiotic alone)/(MIC50 (antibiotic+booster))
MIC 90 gain=(MIC90 of the antibiotic alone)/(MIC90 (antibiotic+booster))
The tested strains are isolated from various human samples (blood, urine, pulmonary aspirates, etc.). The strains investigated in the following examples are chosen from the strains of the following table: […]

[2] = tested on: Staphylococcus; assay: Double dilution test; type: cell-based; conditions: strain 8148
Excerpt: (§2) The double dilution test is a MIC measurement test made on successive dilutions of the 2 products of the composition. […] The summary table expresses for each strain and for each dilution of the booster the measured antibiotic MIC.
(§3) The code enabling the results to be interpreted is the following one: no sign “^+” if the MIC is equivalent with and without booster, a sign “^+” if the value is lower with booster.

[3] = tested on: E. coli; assay: Double dilution test; type: cell-based
Excerpt: as §2, §3

[4] = tested on: strains; assay: MIC of cineol alone, strains not named; type: cell-based; conditions: cineol used alone; strains of the etest example
[5] = tested on: MRSA; assay: Sepsis model, in vivo test 2; parameters: species or system CD1 mice; conditions: CIN 32 mg/kg without antibiotic; subcutaneous; count at 24 h
Procedure: 200 μL of a bacterial solution (MRSA) adjusted to 5.108 UFC/ml is injected by the intravenous route (retro-orbital route) to CD1 mice. The treatment is initiated 1 h after the bacteria injection by the subcutaneous route.
At 24 h, the mice are euthanized and a bacterial count is made in the kidney.
Controls: untreated group, group receiving 32 mg/kg cineol without antibiotic (CIN), group receiving 8 mg/kg antibiotic without cineol (AMC8). • (*) p<0.05 vs control, AMC8 and CIN • (£) p<0.05 vs control and CIN • ($) p<0.05 vs control, AMC8, CIN, AMC+CIN 128, AMC+CIN 256

[6] = tested on: strain 08150; assay: Post antibiotic effect; type: cell-based
[7] = tested on: microorganisms grown in planktonic and biofilm cultures; conditions: Hendry et al, J Antimicrob Chemother 2009; cited from earlier work
[8] = tested on: Escherichia coli; assay: MIC measurement in agar solid medium (CLSI); type: cell-based
Excerpt: as §1, with “fungi. MIC measurement: the minimum inhibitory concentration measurement tests are made in an agar solid medium according to international standards in force (CLSI standards), according to the previously defined protocol. […] The booster contribution as compared with the MIC of the antibiotic alone is expressed in a (MIC ATB)/(MIC ATB+booster) ratio. Thereby, gains are defined: […] The tested strains are isolated from various human samples (blood, urine, pulmonary aspirates, etc.). The strains investigated in the following examples are chosen from the strains of the following table: [table] […] The MICs are measured on different strains. Then, the MIC gain is calculated on the strains belonging to the same genus. The MIC gain expresses the following ratio: […]” for “fungi.”

[9] = tested on: Staphylococcus; assay: MIC measurement in agar solid medium (CLSI); type: cell-based
Excerpt: as §1, with “fungi. MIC measurement: the minimum inhibitory concentration measurement tests are made in an agar solid medium according to international standards in force (CLSI standards), according to the previously defined protocol. […] The booster contribution as compared with the MIC of the antibiotic alone is expressed in a (MIC ATB)/(MIC ATB+booster) ratio. Thereby, gains are defined: […] The tested strains are isolated from various human samples (blood, urine, pulmonary aspirates, etc.). The strains investigated in the following examples are chosen from the strains of the following table: [table] […] The MICs are measured on different strains. Then, the MIC gain is calculated on the strains belonging to the same genus. The MIC gain expresses the following ratio: […]” for “fungi.”

[10] = tested on: MRSA 10168; conditions: mouse, in vivo
Procedure: To Balb/c mice, is injected (Sc.) the antimicrobial product or the antimicrobial+booster mixture.
At different post-injection times, the mice are euthanised, and blood sampled, heparined and centrifuged to extract plasma thereof
Antibacterial effects are measured after 24 h incubation. The successive dilutions enable the antimicrobial effect to be determined and compared with the MIC. The efficient concentration/MIC ratio is thus determined.

CC12CCC(CC1)C(C)(C)O2 [Cineol, cineol]
MIC 50 of cineol alone ([1]; DMSO): 1% | MIC 90 of cineol alone ([1]; DMSO): 1% | MIC 50 of cineol alone ([1]; Tween/prop glyc): >1% | MIC 90 of cineol alone ([1]; Tween/prop glyc): >1% | MIC 50 of cineol alone ([1]; Tween/water): >1% | MIC 90 of cineol alone ([1]; Tween/water): >1% | MIC 50 of cineol alone ([1]; water/water): >1% | MIC 90 of cineol alone ([1]; water/water): >1% | MIC of cineol alone [2]: > 2.5 µg/mL | MIC of cineol alone ([3]; strain 8137): > 2.5 µg/mL | MIC of cineol alone ([3]; strain 8151): > 2.5 µg/mL | MIC of cineol alone ([3]; strain 8155): > 2.5 µg/mL | MIC of cineol alone ([3]; strain 8156): > 2.5 µg/mL | MIC of cineol alone ([3]; strain ATCC 25922): > 2.5 µg/mL | MIC50 [4]: > 10000 µg/mL | Mean ± SD log10 UFC/g kidney [5]: 6.35 ± 0.29 log10 UFC/g kidney | number of bacteria ([6]; time 0 h after 16 h contact, Cineol 4 mg/L (AC, where present, at its MIC)): 2.17E+07 | number of bacteria ([6]; time 0 h after 16 h contact, Cineol 16 mg/L (AC, where present, at its MIC)): 2.20E+07 | number of bacteria ([6]; time 1 h after 16 h contact, Cineol 4 mg/L (AC, where present, at its MIC)): 4.92E+07 | number of bacteria ([6]; time 1 h after 16 h contact, Cineol 16 mg/L (AC, where present, at its MIC)): 3.88E+07 | number of bacteria ([6]; time 2 h after 16 h contact, Cineol 4 mg/L (AC, where present, at its MIC)): 5.50E+07 | number of bacteria ([6]; time 2 h after 16 h contact, Cineol 16 mg/L (AC, where present, at its MIC)): 6.40E+07 | number of bacteria ([6]; time 3 h after 16 h contact, Cineol 4 mg/L (AC, where present, at its MIC)): 3.90E+08 | number of bacteria ([6]; time 3 h after 16 h contact, Cineol 16 mg/L (AC, where present, at its MIC)): 2.70E+08 | number of bacteria ([6]; time 4 h after 16 h contact, Cineol 4 mg/L (AC, where present, at its MIC)): 3.50E+08 | number of bacteria ([6]; time 4 h after 16 h contact, Cineol 16 mg/L (AC, where present, at its MIC)): 4.20E+08 | number of bacteria ([6]; time 5 h after 16 h contact, Cineol 4 mg/L (AC, where present, at its MIC)): 5.90E+08 | number of bacteria ([6]; time 5 h after 16 h contact, Cineol 16 mg/L (AC, where present, at its MIC)): 5.50E+08 | number of bacteria ([6]; time 6 h after 16 h contact, Cineol 4 mg/L (AC, where present, at its MIC)): 6.00E+08 | number of bacteria ([6]; time 6 h after 16 h contact, Cineol 16 mg/L (AC, where present, at its MIC)): 5.90E+08 | MIC of cineole [7]: 8000 to 64000 µg/mL | MIC 50 of cineol alone ([8]; DMSO): >1% | MIC 90 of cineol alone ([8]; DMSO): >1% | MIC 50 of cineol alone ([8]; Tween/prop glyc): >1% | MIC 90 of cineol alone ([8]; Tween/prop glyc): >1% | MIC 50 of cineol alone ([8]; Tween/water): >1% | MIC 90 of cineol alone ([8]; Tween/water): >1% | MIC 50 of cineol alone ([8]; water/water): >1% | MIC 90 of cineol alone ([8]; water/water): >1% | MIC 50 of cineol alone ([9]; DMSO): >1% | MIC 90 of cineol alone ([9]; DMSO): >1% | MIC 50 of cineol alone ([9]; Tween/prop glyc): >1% | MIC 90 of cineol alone ([9]; Tween/prop glyc): >1% | MIC 50 of cineol alone ([9]; Tween/water): >1% | MIC 90 of cineol alone ([9]; Tween/water): >1% | MIC 50 of cineol alone ([9]; water/water): >1% | MIC 90 of cineol alone ([9]; water/water): >1%

amoxicillin/clavulanic acid [Augmentin®]
Time spent beyond the MIC [10]: <4 h
